Data from patent publication US20260152533A1, “COMBINATION INHIBITORS FOR TREATING FIBROSIS” (Memorial Sloan-Kettering Cancer Center, priority 2021, published 2026).

Columns and labels:
Format in all cases: cell-based, mouse
[1] = test system: mammary fibroblasts (MFBs); assay: Western blot of MFBs; settings: TGFβ
From the text: (§1) NIH-3T3 cells were obtained from ATCC (CRL-1658); 293 T cells were obtained from ATCC (CRL-3216). PSCs were isolated from C57BL/6 mice by differential centrifugation as previously described^49 and their mesenchymal origin was validated by analyzing the expression of various mesenchymal and epithelial markers. MFBs were isolated from FVB/N mice by differential centrifugation as previously described^50. DB7 mouse breast cancer cells were obtained from Alexander Borowsky (University of California Davis Comprehensive Cancer Center, Sacramento, CA, USA) through an MTA to Ohio State University (OSU). KPC (Kras^LSL-G12D; Trp53^LSL-R172H; Pdx1-Cre) mouse PDAC cells were a gift from Scott Lowe (Memorial Sloan Kettering Cancer Center. (MSKCC)). […]
Lysates were generated by incubating cells or ground tumors in RIPA buffer (Millipore); […] of cleared lysate were analyzed by SDS-polyacrylamide gel electrophoresis (SDS-PAGE) as previously described^11. […] Quantification of band intensities of collagen I relative to […] or vinculin in tumor allograft experiments was performed with Image Lab software v6.0 (Bio-Rad).

[2] = test system: pancreatic stellate cells (PSCs); assay: Growth experiments, PSCs; settings: 20% Gln, TGFβ
From the text: as §1
A total of 0.2×10^5 cells/well were plated in 24-well culture plates and media was changed and treatments started 5-6 hours later. Cell numbers at the start of treatment (day 0 “d 0”) and 1, 2 and 3 days later were counted using the Multisizer 4e (Beckman) and normalized to the cell number at d 0. In co-culture assays, a fraction of the cell population was analyzed by flow cytometry for GFP expression, and the rest counted with the Multisizer 4e. The number of KPC-GFP cells was determined by multiplying the fraction of GFP+ cells with the total number of cells.

NIH-3T3 cells = assay: Collagen abundance in ECM derived from confluent NIH-3T3 cells; settings: 100% and 50% Gln, TGFβ
Procedure: (§2) Culture plates were coated with 0.1% gelatin (Sigma) and treated with 1% glutaraldehyde (Sigma) and 1 M ethanolamine (Sigma). Confluent NIH-3T3 cells, MFBs or PSCs were grown for 6 days on coated plates in the presence of […] sodium ascorbate (Sigma) and treated as indicated, and the medium was replaced every other day. Plates were decellularized with 20 mM ammonium hydroxide/0.5% Triton-X 100 for 5 min on a rotating platform. Three times the volume of PBS was added, and ECM was equilibrated overnight at 4° C., followed by four additional PBS washes. For western blot, preheated sample buffer supplemented with 1 mM dithiothreitol (DTT) was added, ECM was scraped off and boiled, and proteins were separated by SDS-PAGE followed by immunoblotting. To measure collagen abundance, fibroblast-derived ECM was stained with the Picro Sirius Red Stain Kit (Abcam) according to the manufacturer's instructions. The stain was extracted with 0.1 M sodium hydroxide (NaOH) and optical density was measured at 550 nm using a microplate reader. Differences in cell number were controlled for by growing cells on separate plates under the same experimental conditions.

[3] = test system: pancreatic stellate cells (PSCs); assay: Collagen abundance in ECM derived from confluent PSCs; settings: Gln 20% or lower, TGFβ (FIG. 8C)
Procedure: as §2

“TGFβ: transforming growth-factor beta; TGFβ-1 purchased from Peprotech” was tested, and the “collagen I production” value ([1]; 20% Gln, 48 hours) was “unable to proliferate and produce collagen I”, the GCN2 phosphorylation ([1]; low Gln (20%), 48 hours (FIG. 8K)) was “showed GCN2 phosphorylation” and the cell proliferation [2] was “unable to proliferate”. The “collagen I levels in the ECM secreted by confluent fibroblasts” value (NIH-3T3 cells) was “upregulated” and the “collagen accumulation in the ECM” value [3] was “could no longer stimulate”.
